Source: PubChem BioAssay (NCI)
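Each compound was tested at five concentrations against cells in 96-well plates for 48 hours. At the GI50, growth is halved. TGI marks complete inhibition of growth.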

Key:
Test in all cases: NCI anticancer screen, dose series, 48 h
NCI-H460 lung = system: NCI-H460 lung
NCI-H522 lung = system: NCI-H522 lung
NCI/ADR-RES ovarian = system: NCI/ADR-RES ovarian
OVCAR-3 ovarian = system: OVCAR-3 ovarian
OVCAR-4 ovarian = system: OVCAR-4 ovarian
OVCAR-5 ovarian = system: OVCAR-5 ovarian
OVCAR-8 ovarian = system: OVCAR-8 ovarian
PC-3 prostate = system: PC-3 prostate
RPMI-8226 leukemia = system: RPMI-8226 leukemia
RXF 393 renal = system: RXF 393 renal
SF-268 CNS = system: SF-268 CNS
SF-295 CNS = system: SF-295 CNS
SF-539 CNS = system: SF-539 CNS
SK-MEL-2 melanoma = system: SK-MEL-2 melanoma
SK-MEL-28 melanoma = system: SK-MEL-28 melanoma
SK-MEL-5 melanoma = system: SK-MEL-5 melanoma
SK-OV-3 ovarian = system: SK-OV-3 ovarian
SN12C renal = system: SN12C renal
SNB-19 CNS = system: SNB-19 CNS
SNB-75 CNS = system: SNB-75 CNS
SR leukemia = system: SR leukemia
SW-620 colon = system: SW-620 colon
T-47D breast = system: T-47D breast
TK-10 renal = system: TK-10 renal
U251 CNS = system: U251 CNS
UACC-257 melanoma = system: UACC-257 melanoma
UACC-62 melanoma = system: UACC-62 melanoma
UO-31 renal = system: UO-31 renal

COc1cc(C2CC(c3ccc(SC)cc3)=NN2C(C)=O)cc(OC)c1OC (stereo unspecified)
GI50 (NCI-H460 lung): 4.14 µM
TGI (NCI-H460 lung): 16.9 µM
GI50 (NCI-H522 lung): 23.8 µM
TGI (NCI-H522 lung): > 100 µM
GI50 (NCI/ADR-RES ovarian): 7.56 µM
TGI (NCI/ADR-RES ovarian): > 100 µM
GI50 (OVCAR-3 ovarian): 3.76 µM
TGI (OVCAR-3 ovarian): 22.8 µM
GI50 (OVCAR-4 ovarian): 34.2 µM
TGI (OVCAR-4 ovarian): > 100 µM
GI50 (OVCAR-5 ovarian): 44.5 µM
TGI (OVCAR-5 ovarian): > 100 µM
GI50 (OVCAR-8 ovarian): 25.2 µM
TGI (OVCAR-8 ovarian): > 100 µM
GI50 (PC-3 prostate): 16.2 µM
TGI (PC-3 prostate): > 100 µM
GI50 (RPMI-8226 leukemia): 6.51 µM
TGI (RPMI-8226 leukemia): 96 µM
GI50 (RXF 393 renal): 13.2 µM
TGI (RXF 393 renal): 43.6 µM
GI50 (SF-268 CNS): 11.9 µM
TGI (SF-268 CNS): > 100 µM
GI50 (SF-295 CNS): 1.23 µM
TGI (SF-295 CNS): 4.64 µM
GI50 (SF-539 CNS): 10 µM
TGI (SF-539 CNS): 38 µM
GI50 (SK-MEL-2 melanoma): 10.5 µM
TGI (SK-MEL-2 melanoma): 60.3 µM
GI50 (SK-MEL-28 melanoma): 16.6 µM
TGI (SK-MEL-28 melanoma): > 100 µM
GI50 (SK-MEL-5 melanoma): 4.04 µM
TGI (SK-MEL-5 melanoma): 16.1 µM
GI50 (SK-OV-3 ovarian): 17.1 µM
TGI (SK-OV-3 ovarian): 95.9 µM
GI50 (SN12C renal): 28.5 µM
TGI (SN12C renal): > 100 µM
GI50 (SNB-19 CNS): 7.04 µM
TGI (SNB-19 CNS): > 100 µM
GI50 (SNB-75 CNS): 4.99 µM
TGI (SNB-75 CNS): 50.9 µM
GI50 (SR leukemia): 1.94 µM
TGI (SR leukemia): 14.2 µM
GI50 (SW-620 colon): 4.49 µM
TGI (SW-620 colon): > 100 µM
GI50 (T-47D breast): 8.9 µM
TGI (T-47D breast): > 100 µM
GI50 (TK-10 renal): 22.9 µM
TGI (TK-10 renal): 78.1 µM
GI50 (U251 CNS): 7.27 µM
TGI (U251 CNS): > 100 µM
GI50 (UACC-257 melanoma): 42 µM
TGI (UACC-257 melanoma): > 100 µM
GI50 (UACC-62 melanoma): 9.86 µM
TGI (UACC-62 melanoma): > 100 µM
GI50 (UO-31 renal): 15.9 µM
TGI (UO-31 renal): 77.4 µM
